From patent publication US12054510B2, “2′ and/or 5′ amino-acid ester phosphoramidate 3′-deoxy adenosine derivatives as anti-cancer compounds” (Nucana plc, priority 2014, dated 2024)

Key:
[1] = tested on: BxPC-3-Luc; test: Solid tumour and haematological malignancy assay (CellTiterGlo); format: cell-based; settings: 72 hr, Table VII
Experimental: (§1) In vitro viability assay were performed to assess the effects of compounds on cell viability in selected cell lines over 72 hr using the CellTiterGlo (CTG, Promega-G7573) assay. The tests were performed in duplicates with treatment of compounds at 9 points, 3.16 folds titration in 96 well plates over ˜72 hr. The compound starting concentrations were 198 mM. Cell viability assay using CellTiterGlo in 96-well plate were performed. Compound treatment 72 hrs, standard growth conditions, duplicates. Compounds were dissolved to 40 mM with thawed […]. Compounds were serially diluted at 3.16 fold in thawed DMSO, and warmed to 37° C. before being dissolved in media (2 μl+200 μl). After compounds were dissolved in media, media containing compounds were warmed to 37° C. in incubator and then compounds in media were added to cell plates (50 μl+50 μl) in duplicates. The compounds' final concentrations were from 198M to 19.9 nM. All compound solubilities were checked and recorded again, then the plates were transferred to CO2 tissue culture incubator immediately and incubated for 3 days. DMSO final concentration is 0.5%.

[2] = tested on: CCRF-CEM; test: CellTiterGlo cell viability assay, initial screening; format: cell-based; settings: CCRF-CEM; 72 hr; Table II
Experimental: (§2) In vitro viability assays were performed to assess the effects of compounds on cell viability in 7 selected cell lines over 72 hr using the CellTiterGlo (CTG, Promega-G7573) assay. The tests were performed in duplicates with treatment of compounds at 9 points, 3.16 folds titration in 96 well plates over ˜72 hr. The compound starting concentrations were […]. Cell viability assay using CellTiterGlo in 96-well plate were performed. The compound treatment was 72 hrs, under standard growth conditions, and in duplicate. Compounds were dissolved to 40 mM with thawed […]. Compounds were serially diluted at 3.16 fold in thawed DMSO, and warmed to 37° C. before being dissolved in media (2 μl+200 μl). After compounds were dissolved in media (media was also warmed to 37° C.). Media containing compounds were warmed to 37° C. in incubator and then compounds in media were added to cell plates (50 μl+50 μl), in duplicates. The compounds final concentrations were from […] to 19.9 nM. All compound solubilities were checked and recorded again, then the plates were transferred to CO2 tissue culture incubator immediately and incubated for 3 days. DMSO final concentration is 0.5%.

[3] = tested on: HL-60; test: as above; format: cell-based; settings: HL-60; 72 hr; Table II
Experimental: as §2

[4] = tested on: HepG2; test: as above; format: cell-based; settings: HepG2; 72 hr; Table II
Experimental: as §2

[5] = tested on: K562; test: as above; format: cell-based; settings: 72 hr, Table II
Experimental: as §2

[6] = tested on: KG-1; test: as above; format: cell-based; settings: KG-1; 72 hr; Table II
Experimental: as §2

[7] = tested on: MCF-7; test: as above; format: cell-based; settings: MCF-7; 72 hr; Table II
Experimental: as §2

[8] = tested on: MOLT-4; test: as above; format: cell-based; settings: MOLT-4; 72 hr; Table II
Experimental: as §2

[9] = tested on: CEM (TdT+ve); test: ATP ViaLight plus cell viability assay; format: cell-based, Human; settings: CEM (TdT+ve)
Experimental: (§3) Certain compounds of the invention were subjected to further studies to test the cytotoxic activity of certain compounds of the invention and also to measure their activity against 4 haematological cancer cell lines • TdT positive CEM (Human ALL) • TdT negative K562 (Human CML) • TdT negative H1-60 (Human ANLL) • RL (CRL-2261) non-HD lymphoma • The concentrations of the active metabolite dATP (Cordycepin triphosphate) in these cell lines was also measured. • The cytotoxic activity and the intracellular 3′-dATP concentrations were also studied in the presence of hENT1, Adenosine Kinase (AK) and Adenosine Deaminase pharmacological inhibitors in CEM and RL cancer cell lines. Said inhibitors that mimic known cancer resistance mechanisms. Methods Cell Culture
(§4) HL-60, K562, CCRF-CEM and RL cell lines were cultured in RPMI-1640 medium (Sigma Aldrich, UK), which were supplemented with 10% Fetal Bovine Serum (FBS) (PAA Laboratories), 1% amphotericin B (5.5 ml) and 1% penicillin/streptomycin (5.5 ml) (PAA Laboratories) and grown in flasks at 37° C. incubator with 5% CO2.
(§5) The amount of ATP was used as a measurement of cell number and cell viability. ATP ViaLight™ plus assay kit (Lonza, USA: Product No. LT07-121) to detect ATP in cells treated in luminescence compatible 96 well plates (initial concentration of cells was 1×10^4 cells/well) with cordycepin and ProTides at concentrations of: 0, 0.1, 0.5, 1, 5 and 10 μM, followed by incubation for 72 hours at 37° C. incubator with 5% CO2. For inhibitor studies, 10 μM of NBTI or 1 μM EHNA or A-134974 was added and left for 5 minutes before adding the drugs (see section 5 for inhibitor details).
(§6) After incubation, 50 μl of cell lysis reagent was added to the 96 well plates to release the intracellular ATP, followed by 100 μl of ATP monitoring reagent (AMR). The luminescent values of each well were determined using FLUOstar OPTIMA microplate reader (BMG Labtech) which convert ATP into light by using luciferase enzyme. Therefore, the amount of luminescence produced was directly proportional to the amount of ATP.
(§7) Cell lines were treated in the same way as described above but before treatment with drugs, a number of inhibitors were added: • 1) Nitrobenzylthioinosine (NBTI) (Sigma-Aldrich, St. Louis, MO, product # N2255) blocks nucleoside transporters • 2) EHNA hydrochloride (Sigma-Aldrich, St. Louis, MO, product # E114) blocks adenosine deaminase • 3) Adenosine kinase inhibitor A-134974 dihydrochloride hydrate (Sigma-Aldrich, St. Louis, MO, product # A2846): blocks adenosine kinase
(§8) The dose-response curves of cytotoxicity of the drugs was determined using non-linear regression analysis of percentage cell viability versus concentration and EC50 values were obtained. The intracellular assay was conducted in five replicates for each condition. Intracellular assay was determined using paired t test (two-tailed) analysis of 3′ ATP/ATP concentration and p-values were obtained. For all the analysis, Prism Software program (GraphPad Software) was used and Microsoft Powerpoint® 2013 was used to plot the results.

[10] = tested on: HL-60; test: ATP ViaLight plus cell viability assay; format: cell-based, Human; settings: HL-60
Experimental: as §3, §4, §5, §6, §8

[11] = tested on: K562; test: ATP ViaLight plus cell viability assay; format: cell-based, Human; settings: K562
Experimental: as §3, §4, §5, §6, §8

[12] = tested on: RL (CRL-2261); test: ATP ViaLight plus cell viability assay; format: cell-based
Experimental: as §3, §4, §5, §6, §7, §8

[13] = tested on: CCRFCEM; test: Solid tumour and haematological malignancy assay (CellTiterGlo); format: cell-based; settings: Homo sapiens, CCRF-CEM, 72 h, read-out: MI %
Experimental: as §1, with “The tests were performed in duplicates with treatment of compounds at 9 points, 3.16 folds titration in 96 well plates over ˜72 hr. The compound starting concentrations were 198 mM.” left out, “Compounds were serially diluted at 3.16 fold in thawed DMSO, and warmed to 37° C. before being dissolved in media (2 μl+200 μl).” left out, “The compounds' final concentrations were from 198M to 19.9 nM.” left out

Compound: Nc1nc(Cl)nc2c1ncn2[C@@H]1O[C@H](CO)C[C@H]1O [2-Cl-cordycepin, 3′-deoxy-2-chloroadenosine, reference compound]
- MI % [1]: −1.3%

Compound: CCCCCOC(=O)[C@H](CC(C)C)NP(=O)(OC[C@@H]1C[C@@H](O)[C@H](n2cnc3c(N)ncnc32)O1)Oc1cccc2ccccc12 (mixture of isomers) [D, (2S)-pentyl 2-(((((2S,4R,5R)-5-(6-amino-9H-purin-9-yl)-4-hydroxytetrahydrofuran-2-yl)methoxy)(naphthalen-1-yloxy)phosphoryl)amino)-4-methylpentanoate]
- M.I. %: maximum percentage inhibition of cell viability [2]: 100%
- M.I. %: maximum percentage inhibition of cell viability [3]: 100%
- M.I. %: maximum percentage inhibition of cell viability [4]: 99%
- M.I. %: maximum percentage inhibition of cell viability [5]: 99%
- M.I. %: maximum percentage inhibition of cell viability [6]: 100%
- M.I. %: maximum percentage inhibition of cell viability [7]: 100%
- M.I. %: maximum percentage inhibition of cell viability [8]: 100%
- (FD) fold difference compared to Cordycepin = Cordycepin IC50/ProTide IC50 [9]: 3
- (FD) fold difference compared to Cordycepin = Cordycepin IC50/ProTide IC50 [10]: 2
- (FD) fold difference compared to Cordycepin = Cordycepin IC50/ProTide IC50 [11]: 3
- (FD) fold difference compared to Cordycepin = Cordycepin IC50/ProTide IC50 [12]: 5

Compound: CCCCCOC(=O)[C@H](CC(C)C)NP(=O)(OC[C@@H]1C[C@H](O)[C@H](n2cnc3c(N)nc(OC)nc32)O1)Oc1cccc2ccccc12 (stereo partly shown) [Compound M]
- Emax [13]: 100%
